Values quoted from earlier work in paper PMC3014826 (The Biochemical journal, 2009).

System: A6 TCR
Settings: ITC, 37 °C; ref Armstrong et al. (2008)

HTLV-1 Tax11-19 peptide [Native Tax]
ΔG°: -8.59 ± 0.04 kcal/mol | ΔH°: -7.1 ± 0.1 kcal/mol | ΔS°: 4.7 ± 0.4 cal/mol/K
